The text below walks through data of patent US20250197409A1, “BIFUNCTIONAL COMPOUND AND PHARMACEUTICAL COMPOSITION COMPRISING THE BIFUNCTIONAL COMPOUND, AND METHOD FOR TREATING ANDROGEN RECEPTOR RELATED DISEASE BY USING THE SAME” (ANHORN MEDICINES CO., LTD., priority 2022, published 2025).

Where two headings read alike, the source gives them in different places.

In the experiment the target is T1, androgen receptor (Homo sapiens, UniProt P10275, T878A).
T1 construct: host or cells: LNCaP.FGC
Kind of experiment: Androgen receptor degradation assay using Western blot analysis. The format is cell-based. As for the experimental part:
Cells not treated with any of the above-mentioned compounds are used as a negative control.
The internal loading control GAPDH was detected using a mouse monoclonal antibody (1:5000) (GTX627408, GeneTex International Corp., HsinChu City, Taiwan R.O.C.) and a goat anti-mouse HRP-conjugated secondary antibody (1:5000 dilution) (C04001, Croyez Bioscience Co., Ltd., Taipei City, Taiwan R.O.C.).
AR remaining percentage was determined by the intensity difference of AR signals (each was normalized by the corresponding internal loading control GAPDH) between the protein samples from the untreated cells (100%) and those from the treated cells. “Cpd. #” indicates the compound number hereinabove.
In addition, several compounds were selected to prepare a treatment stock solutions at 100 nM in RPMI medium. The treatment stock solutions were separately serially diluted (10×) with RPMI medium for treating LNCaP.FGC cells seeded with 2×10^5 cells per well in 24-well tissue culture plates. A calibration curve was determined by the serial diluted samples for each compound, and the concentration needed for 50% AR degradation (AR DC50) for each compound was calculated.

[1] abbreviates: 24 h, read-out: Androgen Receptor Remaining (%), LNCaP.FGC cells, 100 nM, 24 hr, normalized to GAPDH, untreated cells = 100%.
[2] abbreviates: read-out: AR DC50 (concentration needed for 50% AR degradation); LNCaP.FGC cells, serial 10x dilutions from 100 nM.
Where [3] appears, read: 24 h, LNCaP.FGC cells, 100 nM, 24 hr, normalized to GAPDH, untreated cells = 100%; read-out: Androgen Receptor Remaining (%).
Where [4] appears, read: LNCaP.FGC cells, serial 10x dilutions from 100 nM; read-out: AR DC50 (concentration needed for 50% AR degradation).

T1 sequence (P10275 whole entry T878A): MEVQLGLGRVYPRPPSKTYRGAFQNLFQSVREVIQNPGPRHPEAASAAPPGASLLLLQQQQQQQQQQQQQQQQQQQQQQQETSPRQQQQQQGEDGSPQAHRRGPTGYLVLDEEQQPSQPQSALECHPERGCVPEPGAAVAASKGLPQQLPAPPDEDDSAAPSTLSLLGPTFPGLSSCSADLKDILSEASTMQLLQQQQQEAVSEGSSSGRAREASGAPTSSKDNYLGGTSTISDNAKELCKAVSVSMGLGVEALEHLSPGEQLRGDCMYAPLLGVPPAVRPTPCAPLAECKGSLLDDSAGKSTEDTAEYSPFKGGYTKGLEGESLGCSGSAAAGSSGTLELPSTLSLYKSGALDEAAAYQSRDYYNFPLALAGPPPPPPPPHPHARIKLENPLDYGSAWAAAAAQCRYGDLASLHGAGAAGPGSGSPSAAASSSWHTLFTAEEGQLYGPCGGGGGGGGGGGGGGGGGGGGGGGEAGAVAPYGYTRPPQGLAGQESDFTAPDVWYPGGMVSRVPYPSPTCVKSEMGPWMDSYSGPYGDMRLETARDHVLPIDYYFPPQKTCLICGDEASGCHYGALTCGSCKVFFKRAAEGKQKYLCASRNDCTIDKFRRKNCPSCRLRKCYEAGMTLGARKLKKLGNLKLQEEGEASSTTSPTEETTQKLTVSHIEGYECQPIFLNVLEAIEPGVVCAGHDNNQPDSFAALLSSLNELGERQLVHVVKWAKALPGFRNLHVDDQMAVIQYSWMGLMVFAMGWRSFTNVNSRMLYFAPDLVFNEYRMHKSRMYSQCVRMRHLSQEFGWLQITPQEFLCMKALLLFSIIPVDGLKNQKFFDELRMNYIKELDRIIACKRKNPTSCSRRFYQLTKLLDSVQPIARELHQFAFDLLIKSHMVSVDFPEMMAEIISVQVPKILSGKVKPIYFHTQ
T1 sequence (Q96SW2 whole entry partner): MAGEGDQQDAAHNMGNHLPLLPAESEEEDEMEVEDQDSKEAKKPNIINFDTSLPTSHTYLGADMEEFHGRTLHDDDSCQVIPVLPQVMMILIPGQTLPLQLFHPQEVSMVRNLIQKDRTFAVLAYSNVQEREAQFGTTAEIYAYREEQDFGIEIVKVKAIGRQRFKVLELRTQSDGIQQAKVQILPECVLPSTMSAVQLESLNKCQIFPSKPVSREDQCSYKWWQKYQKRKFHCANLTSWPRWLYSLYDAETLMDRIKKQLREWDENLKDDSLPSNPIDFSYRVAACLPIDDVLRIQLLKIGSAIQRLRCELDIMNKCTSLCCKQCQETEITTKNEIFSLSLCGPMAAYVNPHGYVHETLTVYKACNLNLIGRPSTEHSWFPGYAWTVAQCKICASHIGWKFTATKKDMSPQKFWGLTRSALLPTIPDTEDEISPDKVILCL

Consider `CCn1c2c(c3ccc(OCCOC4CC5(CCN(c6ccc(C(=O)N[C@H]7CC[C@H](N(C)c8ccc(C#N)c(Cl)c8)CC7)nn6)C5)C4)cc31)C(=O)N(C1CCC(=O)NC1=O)C2=O` (some centres unmarked) [Compound 164], for which the remaining activity at 0.1 µM under setting [1] was 31%. Moreover, the DC50 under setting [2] was 10 to 25 nM.
Taken in the same sequence, the figures for `CCn1c2c(c3ccc(OCCCCN4CCN(c5ccc(C(=O)N[C@H]6CC[C@H](N(C)c7ccc(C#N)c(Cl)c7)CC6)nn5)CC4)cc31)C(=O)N(C1CCC(=O)NC1=O)C2=O` (some centres unmarked) [Compound 91] were 0% and 10 to 25 nM.
Turning to `CCn1c2c(c3ccc(OCCN4CCC5(CC4)CN(c4ccc(C(=O)N[C@H]6CC[C@H](N(C)c7ccc(C#N)c(Cl)c7)CC6)nn4)C5)cc31)C(=O)N(C1CCC(=O)NC1=O)C2=O` (some centres unmarked) [Compound 106], under setting [1], the remaining activity at 0.1 µM amounted to 119%.
In the case of `N#Cc1ccc(O[C@H]2CC[C@H](NC(=O)c3ccc(N4CC5(CCN(CCOc6ccc7c8c(n(CC(F)F)c7c6)C(=O)N(C6CCC(=O)NC6=O)C8=O)CC5)C4)nn3)CC2)cc1Cl` (some centres unmarked) [Compound 103], the remaining activity at 0.1 µM under setting [1] worked out at 52%.
Consider `CCn1c2c(c3ccc(OCC(=O)N4CCC5(CCN(c6ccc(C(=O)N[C@H]7CC[C@H](Oc8ccc(C#N)c(Cl)c8)CC7)nn6)C5)C4)cc31)C(=O)N(C1CCC(=O)N(CO)C1=O)C2=O` (some centres unmarked) [Compound 135], for which, under setting [1], the remaining activity at 0.1 µM amounted to 17%. In addition, the DC50 under setting [2] was in the range of 25 to 100 nM.
For the compound `Cn1c2c(c3ccc(OCCOC4CC5(CCN(c6ccc(C(=O)N[C@H]7CC[C@H](N(C)c8ccc(C#N)c(Cl)c8)CC7)nn6)C5)C4)cc31)C(=O)N(C1CCC(=O)NC1=O)C2=O` (some centres unmarked) [Compound 175], the DC50 under setting [2] lay within 10 to 25 nM.
In the case of `Cn1c2c(c3ccc(OCCOC4CCN(c5ccc(C(=O)N[C@H]6CC[C@H](Oc7ccc(C#N)c(Cl)c7)CC6)nn5)CC4)cc31)C(=O)N(C1CCC(=O)NC1=O)C2=O` (some centres unmarked) [Compound 168], the remaining activity at 0.1 µM under setting [3] came to 20%. In addition, under setting [4], the DC50 fell in the range of 10 to 25 nM.
Consider `CCn1c2c(c3ccc(OCCC4CCN(c5ccc(C(=O)N[C@H]6CC[C@H](N(C)c7ccc(C#N)c(Cl)c7)CC6)nn5)CC4)cc31)C(=O)N(C1CCC(=O)NC1=O)C2=O` (some centres unmarked) [Compound 140], for which the remaining activity at 0.1 µM under setting [1] was determined as 32%. Moreover, the DC50 under setting [2] was in the range of 25 to 100 nM.
Regarding `CC(C)n1c2c(c3cc(OCCN4CCN(c5ccc(C(=O)N[C@H]6C(C)(C)[C@H](Oc7ccc(C#N)c(Cl)c7)C6(C)C)cc5)CC4)ccc31)C(=O)N(C1CCC(=O)NC1=O)C2=O` (some centres unmarked) [Compound 17], the remaining activity at 0.1 µM under setting [1] amounted to 127%.
Take `CC1(C)[C@H](NC(=O)c2ccc(N3CCN(CCCOc4ccc5c6c(sc5c4)C(=O)N(C4CCC(=O)NC4=O)C6=O)CC3)cn2)C(C)(C)[C@H]1Oc1ccc(C#N)c(Cl)c1` (some centres unmarked) [Compound 14]: under setting [3], the remaining activity at 0.1 µM worked out at 70%.
For `CCn1c2c(c3ccc(OCCCCN4CCCN(c5ccc(C(=O)N[C@H]6CC[C@H](N(C)c7ccc(C#N)c(Cl)c7)CC6)nn5)CC4)cc31)C(=O)N(C1CCC(=O)NC1=O)C2=O` (some centres unmarked) [Compound 112], under setting [1], the remaining activity at 0.1 µM was 32%. The DC50 under setting [2] lay in the range of 10 to 25 nM.
`Cn1c2c(c3ccc(NC(=O)CN4CCN(c5ccc(C(=O)N[C@H]6CC[C@H](Oc7ccc(C#N)c(Cl)c7)CC6)nn5)CC4)cc31)C(=O)N(C1CCC(=O)NC1=O)C2=O` (some centres unmarked) [Compound 41]: the remaining activity at 0.1 µM under setting [3] was 81%.
In the case of `CCn1c2c(c3ccc(OCCCN4CCC5(CC4)CN(c4ccc(C(=O)N[C@H]6CC[C@H](Oc7ccc(C#N)c(Cl)c7)CC6)nn4)C5)cc31)C(=O)N(C1CCC(=O)NC1=O)C2=O` (some centres unmarked) [Compound 48], the remaining activity at 0.1 µM under setting [1] came to 20%. For the same compound, the DC50 under setting [2] is less than 10 nM.
In the case of `CC1(C)[C@H](NC(=O)c2ccc(N3CCN(CCOc4ccc5c6c(sc5c4)C(=O)N(C4CCC(=O)NC4=O)C6=O)CC3)cn2)C(C)(C)[C@H]1Oc1ccc(C#N)c(Cl)c1` (some centres unmarked) [Compound 18], for the setting “LNCaP.FGC cells, 100 nM, 24 hr, normalized to GAPDH, untreated cells = 100%”, the “Androgen Receptor Remaining (%)” value is on record as 99%.
Turning to `N#Cc1ccc(O[C@H]2CC[C@H](NC(=O)c3ccc(N4CCN(CCOc5ccc6c7c(n(CC(F)F)c6c5)C(=O)N(C5CCC(=O)NC5=O)C7=O)CC4)nn3)CC2)cc1Cl` (some centres unmarked) [Compound 105], the remaining activity at 0.1 µM under setting [1] was 42%. Under setting [2], the DC50 is 25 to 100 nM.
With `CCn1c2c(c3ccc(OCCCN4CC5CCC(C4)N5c4ccc(C(=O)N[C@H]5CC[C@H](Oc6ccc(C#N)c(Cl)c6)CC5)nn4)cc31)C(=O)N(C1CCC(=O)NC1=O)C2=O` (some centres unmarked) [Compound 71], the remaining activity at 0.1 µM under setting [1] was 77%.
As for `Cn1c2c(c3ccc(NC(=O)CN4CCCN(c5ccc(C(=O)N[C@H]6CC[C@H](Oc7ccc(C#N)c(Cl)c7)CC6)nn5)CC4)cc31)C(=O)N(C1CCC(=O)NC1=O)C2=O` (some centres unmarked) [Compound 68], under setting [3], the remaining activity at 0.1 µM is 81%.
Take `CCn1c2c(c3ccc(OCCCOC4CC5(CCN(c6ccc(C(=O)N[C@H]7CC[C@H](N(C)c8ccc(C#N)c(Cl)c8)CC7)nn6)C5)C4)cc31)C(=O)N(C1CCC(=O)NC1=O)C2=O` (some centres unmarked) [Compound 177]: under setting [2], the DC50 is 25 to 100 nM.
On to `CCn1c2c(c3ccc(OCCCN4CCN(c5ccc(N6C(=S)N(c7ccc(C#N)c(C(F)(F)F)c7)C(=O)C6(C)C)cc5)CC4)cc31)C(=O)N(C1CCC(=O)NC1=O)C2=O` (centres unmarked) [Compound 117], for which the remaining activity at 0.1 µM under setting [1] amounted to 56%.
Consider `CCn1c2c(c3ccc(OCCOC4CCC5(CC4)CN(c4ccc(C(=O)N[C@H]6CC[C@H](N(C)c7ccc(C#N)c(Cl)c7)CC6)nn4)C5)cc31)C(=O)N(C1CCC(=O)NC1=O)C2=O` (some centres unmarked) [Compound 156], for which, under setting [1], the remaining activity at 0.1 µM was found to be 37%. Also, under setting [2], the DC50 fell in the range of 25 to 100 nM.
As to `CCn1c2c(c3ccc(OCCCN4CCC5(CCN(c6ccc(C(=O)N[C@H]7CC[C@H](Oc8ccc(C#N)c(Cl)c8)CC7)nn6)C5)C4)cc31)C(=O)N(C1CCC(=O)NC1=O)C2=O` (some centres unmarked) [Compound 132], the remaining activity at 0.1 µM under setting [1] is 7%. In addition, the DC50 under setting [2] was in the range of 10 to 25 nM.
In the case of `CCn1c2c(c3ccc(OCCN4CCCN(c5ccc(C(=O)N[C@H]6CC[C@H](Oc7ccc(C#N)c(Cl)c7)CC6)nn5)CC4)cc31)C(=O)N(C1CCC(=O)NC1=O)C2=O` (some centres unmarked) [Compound 52], the remaining activity at 0.1 µM under setting [1] is 42%. The DC50 under setting [2] lay in the range of 10 to 25 nM.
Turning to `CN(c1ccc(C#N)c(Cl)c1)[C@H]1CC[C@H](NC(=O)c2ccc(N3CCN(CCCOc4ccc5c6c(n(CC(F)F)c5c4)C(=O)N(C4CCC(=O)NC4=O)C6=O)CC3)nn2)CC1` (some centres unmarked) [Compound 83], under setting [1], the remaining activity at 0.1 µM is 41%. Under setting [2], the DC50 fell in the range of 10 to 25 nM.
For `CCn1c2c(c3ccc(OC(C)CCN4CCC(c5ccc(C(=O)N[C@H]6CC[C@H](Oc7ccc(C#N)c(Cl)c7)CC6)nn5)CC4)cc31)C(=O)N(C1CCC(=O)NC1=O)C2=O` (some centres unmarked) [Compound 211], the DC50 under setting [2] was less than 10 nM.
As for `Cn1c2c(c3ccc(OC4CCN(CC5CCN(c6ccc(C(=O)N[C@H]7C(C)(C)[C@H](Oc8ccc(C#N)c(Cl)c8)C7(C)C)cc6)CC5)CC4)cc31)C(=O)N(C1CCC(=O)NC1=O)C2=O` (some centres unmarked) [Compound 219], the DC50 under setting [4] lay within 25 to 100 nM.
In the case of `CCn1c2c(c3ccc(OCCCN4CCN(c5ccc(C(=O)N[C@H]6CC[C@H](Oc7ccc(C#N)c(Cl)c7)CC6)nn5)[C@@H](C)C4)cc31)C(=O)N(C1CCC(=O)NC1=O)C2=O` (some centres unmarked) [Compound 65], the remaining activity at 0.1 µM under setting [1] was determined as 32%. Also, the DC50 under setting [2] was in the range of 25 to 100 nM.
Regarding `CCCn1c2c(c3ccc(OCCCN4CCN(c5ccc(C(=O)N[C@H]6C(C)(C)[C@H](Oc7ccc(C#N)c(Cl)c7)C6(C)C)cn5)CC4)cc31)C(=O)N(C1CCC(=O)NC1=O)C2=O` (some centres unmarked) [Compound 22], under setting [1], the remaining activity at 0.1 µM was 89%.
For `Cn1c2c(c3ccc(OC4CCN(CC5CN(c6ccc(C(=O)N[C@H]7CC[C@H](Oc8ccc(C#N)c(Cl)c8)CC7)nn6)C5)CC4)cc31)C(=O)N(C1CCC(=O)NC1=O)C2=O` (some centres unmarked) [Compound 217], the DC50 under setting [4] was in the range of 10 to 25 nM.
As to `CCn1c2c(c3ccc(OCCCN4CCC(C5CCN(c6ccc(C(=O)N[C@H]7CC[C@H](N(C)c8ccc(C#N)c(Cl)c8)CC7)nn6)CC5)CC4)cc31)C(=O)N(C1CCC(=O)NC1=O)C2=O` (some centres unmarked) [Compound 167], the remaining activity at 0.1 µM under setting [1] is 78%.
As to `CCn1c2c(c3ccc(OCCCC4CCN(c5ccc(C(=O)N[C@H]6CC[C@H](Oc7ccc(C#N)c(Cl)c7)CC6)nn5)CC4)cc31)C(=O)N(C1CCC(=O)NC1=O)C2=O` (some centres unmarked) [Compound 163], the remaining activity at 0.1 µM under setting [1] amounted to 41%.
As to `CCn1c2c(c3ccc(OCCCN4CCN(c5ccc(C(=O)N[C@H]6C(C)(C)[C@H](Oc7ccc(C#N)c(Cl)c7)C6(C)C)cn5)CC4)cc31)C(=O)N(C1CCC(=O)NC1=O)C2=O` (some centres unmarked) [Compound 20], the remaining activity at 0.1 µM under setting [1] came out at 63%.
As to `CCn1c2c(c3cc(OCCN4CCN(c5ccc(C(=O)N[C@H]6C(C)(C)[C@H](Oc7ccc(C#N)c(Cl)c7)C6(C)C)cn5)CC4)ccc31)C(=O)N(C1CCC(=O)NC1=O)C2=O` (some centres unmarked) [Compound 5], the remaining activity at 0.1 µM under setting [1] turned out to be 51%.
Regarding `CCn1c2c(c3ccc(OCCCN4CC5(CCN(c6ccc(C(=O)N[C@H]7CC[C@H](Oc8ccc(C#N)c(Cl)c8)CC7)nn6)CC5)C4)cc31)C(=O)N(C1CCC(=O)N(COCC[Si](C)(C)C)C1=O)C2=O` (some centres unmarked) [Compound 94], the remaining activity at 0.1 µM under setting [1] turned out to be 89%.
Consider `Cn1c2c(c3ccc(OC4CCN(CC5CCN(c6ncc(C(=O)N[C@H]7CC[C@H](Oc8ccc(C#N)c(Cl)c8)CC7)cn6)CC5)CC4)cc31)C(=O)N(C1CCC(=O)NC1=O)C2=O` (some centres unmarked) [Compound 28], for which the DC50 under setting [4] fell in the range of 25 to 100 nM.
